{"source": "patent US7982030B2", "about": "“Synthesis of selenium-derivatized nucleosides, nucleotides, phosphoramidites, triphosphates and nucleic acids” (Georgia State University Research Foundation, Inc., priority 2001, dated 2011)", "target": "T1, DNA polymerase (Klenow Fragment) (Escherichia coli, UniProt P00582)", "T1 construct": "using a DNA polymerase (Klenow Fragment)", "T1 sequence (P00582 324-928)": "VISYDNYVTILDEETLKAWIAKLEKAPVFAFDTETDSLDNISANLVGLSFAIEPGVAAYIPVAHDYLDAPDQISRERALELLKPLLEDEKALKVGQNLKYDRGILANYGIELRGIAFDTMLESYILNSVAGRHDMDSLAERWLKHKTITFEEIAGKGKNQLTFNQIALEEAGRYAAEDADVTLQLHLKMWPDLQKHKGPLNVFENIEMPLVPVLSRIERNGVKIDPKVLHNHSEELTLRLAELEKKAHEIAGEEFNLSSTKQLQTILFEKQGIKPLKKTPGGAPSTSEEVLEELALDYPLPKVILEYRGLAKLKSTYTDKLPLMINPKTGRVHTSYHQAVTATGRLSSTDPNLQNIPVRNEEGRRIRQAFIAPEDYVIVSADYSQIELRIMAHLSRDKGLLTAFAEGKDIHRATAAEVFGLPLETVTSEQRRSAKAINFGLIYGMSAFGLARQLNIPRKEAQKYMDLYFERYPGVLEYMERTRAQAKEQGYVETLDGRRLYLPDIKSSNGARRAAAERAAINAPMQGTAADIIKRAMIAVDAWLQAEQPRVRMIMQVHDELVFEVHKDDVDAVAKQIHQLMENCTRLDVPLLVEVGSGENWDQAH", "assay": "terminal extension on a DNA template: substrate recognition by Klenow", "format": "biochemical", "conditions": "3′-terminal extension on a DNA template", "procedure": "An alternative approach to label RNAs with selenium is based on the RNA 3′-labeling method (FIG. 9). See ref. 33. After a long RNA is prepared by transcription using ordinary NTPs, α-Se-dNTPs is transferred to its 3′-terminus on a DNA template using a DNA polymerase (Klenow Fragment). […] Experiments also reveal that the number of incorporated dNTPs is dependent on the length of the overhanging nucleotides of the template, and the terminal extension reaction giving full-length product with high yields in the presence of high dNTP concentration. The products may be purified by any one of a variety of methods well known in the art, such as for example, preparative anion exchange HPLC, to single nucleotide resolution for RNA as long as 70 nucleotides. (Ref 34). This terminal transfer approach can be very useful for medium size RNAs (up to 80 nucleotides). An analogous approach can be used to prepare Se-DNAs."}
{"smiles": "Cc1cn(C2CC(O)C(COP(O)(=[Se])OP(=O)(O)OP(=O)(O)O)O2)c(=O)[nH]c1=O", "note": "(stereo not drawn) [α-Se-TTP 24]", "values": [{"measurement": "recognition as a substrate by Klenow", "value": "recognized α-Se-TTP 24 as a substrate"}]}
